Data as given in paper PMC10518257 (Nature Cancer, 2023).
Where “and” joins values, the source holds several entries; their conditions need not be identical. Equal entries are not always repeated. Where two headings read alike, the source gives them in different places.

Tests used:
[1] = target: T1, panel of 255 (vepafestinib) or 256 (all other inhibitors) recombinant kinases (Homo sapiens, UniProt P16234); experiment: Kinase selectivity profiling at a single concentration (Carna Biosciences); assay type: biochemical; settings: 17 nM
T1 construct: purchased Carna Biosciences

[2] = target: T2, panel of 255 (vepafestinib) or 256 (all other inhibitors) recombinant kinases (Homo sapiens, UniProt P35916); experiment: as above; assay type: biochemical; settings: 17 nM
T2 construct: purchased Carna Biosciences

[3] = target: panel of 255 (vepafestinib) or 256 (all other inhibitors) recombinant kinases; experiment: as above; assay type: biochemical; settings: 17 nM, 256 kinases
[4] = test system: Ba/F3 cells expressing KIF5B–RET^WT; experiment: Growth inhibition assay in Ba/F3 cells (CellTiter-Glo, 72 h); assay type: cell-based; settings: replicate sets
Ba/F3-CCDC6::RET = experiment: as above; assay type: cell-based
Ba/F3-CCDC6::RET^S904F = experiment: as above; assay type: cell-based
Ba/F3-RET^M918T = experiment: as above; assay type: cell-based; settings: Mus musculus, BaF3, 72 h, read-out: GI50 value (Mean ± SD), Ba/F3-RET^M918T, CellTiter-Glo, 72 h
[5] = test system: Ba/F3 cells expressing KIF5B–RET^G810R; experiment: as above; assay type: cell-based; settings: replicate Sets 1-3
[6] = test system: Ba/F3 cells expressing KIF5B–RET^G810S; experiment: as above; assay type: cell-based; settings: Ba/3-KIF5B-RET-G810S; replicate Sets 1-3
[7] = test system: Ba/F3 cells expressing KIF5B–RET^G810C; experiment: as above; assay type: cell-based; settings: replicate Sets 1-3
[8] = test system: Ba/F3 cells expressing KIF5B–RET^V804M; experiment: as above; assay type: cell-based; settings: replicate sets
TT cells (RET C634W) = experiment: Dose-response western blotting, EC50 for inhibition of protein phosphorylation; assay type: cell-based; settings: Homo sapiens
LUAD-0086AS3 cells = experiment: Growth inhibition (alamarBlue, 96 h); assay type: cell-based, human; settings: for raw viability signal (Source Data Fig. 3b-c): LUAD-0086AS3 (n=1, 3 replicates)
LUAD-0002AS1 cells = experiment: Growth inhibition (alamarBlue, 96 h); assay type: cell-based, human; settings: for raw viability signal (Source Data Fig. 3b-c): LUAD-0002AS1, replicate sets
LUAD-0087AS2 cells = experiment: Growth inhibition (alamarBlue, 96 h); assay type: cell-based, human; settings: for raw viability signal (Source Data Fig. 3b-c): LUAD-0087AS2, replicate sets
[9] = Homo sapiens, 96 h, read-out: IC50 for Inhibition of Growth (95% CI)

T2 sequence (P35916 25-1363): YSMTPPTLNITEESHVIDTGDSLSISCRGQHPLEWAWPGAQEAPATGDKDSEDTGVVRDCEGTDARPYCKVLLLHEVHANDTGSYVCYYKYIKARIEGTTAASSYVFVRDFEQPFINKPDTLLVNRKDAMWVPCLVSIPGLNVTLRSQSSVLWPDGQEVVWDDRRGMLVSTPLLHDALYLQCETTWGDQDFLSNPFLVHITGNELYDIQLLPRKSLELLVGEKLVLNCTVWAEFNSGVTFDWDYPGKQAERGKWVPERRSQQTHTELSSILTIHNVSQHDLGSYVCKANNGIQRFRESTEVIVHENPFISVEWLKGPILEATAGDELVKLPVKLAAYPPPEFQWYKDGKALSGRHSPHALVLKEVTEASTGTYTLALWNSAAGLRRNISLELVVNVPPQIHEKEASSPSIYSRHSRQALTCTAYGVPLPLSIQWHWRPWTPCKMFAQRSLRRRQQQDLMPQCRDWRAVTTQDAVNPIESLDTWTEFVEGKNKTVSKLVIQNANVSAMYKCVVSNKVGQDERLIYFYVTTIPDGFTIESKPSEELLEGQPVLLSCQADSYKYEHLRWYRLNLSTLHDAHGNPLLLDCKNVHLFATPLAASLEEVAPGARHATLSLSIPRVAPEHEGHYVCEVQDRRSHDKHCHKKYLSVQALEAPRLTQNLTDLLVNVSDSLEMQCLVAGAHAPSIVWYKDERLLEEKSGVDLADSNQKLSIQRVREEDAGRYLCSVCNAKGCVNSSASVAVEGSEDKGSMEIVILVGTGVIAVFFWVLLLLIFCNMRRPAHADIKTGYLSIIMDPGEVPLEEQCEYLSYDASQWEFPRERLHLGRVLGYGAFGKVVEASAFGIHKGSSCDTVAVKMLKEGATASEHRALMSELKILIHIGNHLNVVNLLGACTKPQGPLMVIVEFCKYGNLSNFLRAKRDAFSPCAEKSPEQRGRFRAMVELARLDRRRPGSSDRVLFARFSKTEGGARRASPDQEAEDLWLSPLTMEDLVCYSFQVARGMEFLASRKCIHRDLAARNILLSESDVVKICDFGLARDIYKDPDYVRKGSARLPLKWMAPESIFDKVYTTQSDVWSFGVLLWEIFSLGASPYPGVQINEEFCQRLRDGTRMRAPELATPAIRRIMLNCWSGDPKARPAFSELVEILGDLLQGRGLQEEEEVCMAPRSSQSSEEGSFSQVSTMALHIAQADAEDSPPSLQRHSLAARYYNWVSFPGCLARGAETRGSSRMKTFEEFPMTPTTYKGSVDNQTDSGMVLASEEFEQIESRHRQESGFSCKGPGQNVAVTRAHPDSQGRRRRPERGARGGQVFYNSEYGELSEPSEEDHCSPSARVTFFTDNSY
T1 sequence (P16234 24-1089): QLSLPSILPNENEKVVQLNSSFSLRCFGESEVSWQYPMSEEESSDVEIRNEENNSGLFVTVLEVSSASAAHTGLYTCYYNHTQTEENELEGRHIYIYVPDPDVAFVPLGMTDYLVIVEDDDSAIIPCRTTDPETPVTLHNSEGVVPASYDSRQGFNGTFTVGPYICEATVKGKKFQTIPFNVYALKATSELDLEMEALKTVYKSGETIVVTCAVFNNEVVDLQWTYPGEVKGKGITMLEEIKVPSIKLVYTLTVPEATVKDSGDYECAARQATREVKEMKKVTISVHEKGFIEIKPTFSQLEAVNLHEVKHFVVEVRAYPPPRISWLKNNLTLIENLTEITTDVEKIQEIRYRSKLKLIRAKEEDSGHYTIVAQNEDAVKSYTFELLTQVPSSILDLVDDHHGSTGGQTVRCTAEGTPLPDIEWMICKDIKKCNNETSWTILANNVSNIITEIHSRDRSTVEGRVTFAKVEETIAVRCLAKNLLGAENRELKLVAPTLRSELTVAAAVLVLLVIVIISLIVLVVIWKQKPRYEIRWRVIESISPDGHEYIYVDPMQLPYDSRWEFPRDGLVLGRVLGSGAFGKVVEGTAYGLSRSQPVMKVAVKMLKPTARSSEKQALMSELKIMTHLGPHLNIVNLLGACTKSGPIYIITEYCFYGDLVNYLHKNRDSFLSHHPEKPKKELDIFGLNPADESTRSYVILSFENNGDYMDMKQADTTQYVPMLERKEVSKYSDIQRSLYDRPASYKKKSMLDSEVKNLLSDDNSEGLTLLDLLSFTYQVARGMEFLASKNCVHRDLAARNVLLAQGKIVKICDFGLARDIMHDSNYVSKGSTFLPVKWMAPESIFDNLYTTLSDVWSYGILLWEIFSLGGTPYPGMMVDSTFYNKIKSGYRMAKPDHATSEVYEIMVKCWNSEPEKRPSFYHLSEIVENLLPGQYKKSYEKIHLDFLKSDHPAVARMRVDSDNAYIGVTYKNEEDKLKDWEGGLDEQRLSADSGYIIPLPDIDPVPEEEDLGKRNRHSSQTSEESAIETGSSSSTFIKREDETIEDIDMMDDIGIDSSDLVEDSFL

CO[C@]1(C(=O)N[C@@H](C)c2ccc(-n3cc(F)cn3)nc2)CC[C@H](c2nc(C)cc(Nc3cc(C)[nH]n3)n2)CC1 [Pralsetinib]
% Inhibiton PDGFRα [1]: 57.1%
% Inhibiton FLT4 [2]: 74%
kinases inhibited by >50% [3]: 11
GI50 ([4]; Ba/3-KIF5B-RET): 7.33 nM and 4.09 nM
GI50 ([4]; Mus musculus, BaF3, Ba/3-KIF5B-RET): 8.11 nM
GI50 (Ba/F3-CCDC6::RET; BaF3/CCDC6-RET, 72 h, read-out: GI50 value (Mean ± SD), Ba/F3-CCDC6::RET, CellTiter-Glo, 72 h): 19.9 ± 10.6 nM
GI50 (Ba/F3-CCDC6::RET; read-out: GI50 values, Ba/F3-CCDC6::RET, individual sets (replicate experiments)): 11.8 nM and 31.9 nM and 15.9 nM
GI50 (Ba/F3-CCDC6::RET^S904F; BaF3/CCDC6-RET, read-out: GI50 values, Ba/F3-CCDC6::RET S904F, individual sets (replicate experiments)): 6.22 nM
GI50 (Ba/F3-CCDC6::RET^S904F; Mus musculus, BaF3, 72 h, read-out: GI50 value (Mean ± SD), Ba/F3-CCDC6::RET^S904F, CellTiter-Glo, 72 h): 6.02 ± 1.69 nM
GI50 (Ba/F3-CCDC6::RET^S904F; read-out: GI50 values, Ba/F3-CCDC6::RET S904F, individual sets (replicate experiments)): 7.61 nM and 4.24 nM
GI50 (Ba/F3-RET^M918T): 1.62 ± 0.77 nM
GI50 ([5]; Ba/3-KIF5B-RET-G810R): 1420 nM and 1200 nM
GI50 ([5]; Mus musculus, BaF3, Ba/3-KIF5B-RET-G810R): 816 nM
GI50 [6]: 26.2 nM and 86 nM and 39.5 nM
GI50 ([7]; Ba/3-KIF5B-RET-G810C): 44.4 nM
GI50 ([7]; Mus musculus, BaF3, Ba/3-KIF5B-RET-G810C): 66.9 nM
GI50 ([8]; Ba/3-KIF5B-RET-V804M): 7.93 nM and 8.94 nM
GI50 ([8]; Mus musculus, BaF3, Ba/3-KIF5B-RET-V804M): 8.92 nM
EC50 (TT cells (RET C634W); read-out: EC50 for Inhibition of Protein Phosphorylation (95% CI), AKT S473, 2 h, densitometry): 1.5 nM
EC50 (TT cells (RET C634W); read-out: EC50 for Inhibition of Protein Phosphorylation (95% CI), ERK1/2 T202/Y204, 2 h, densitometry): 2 nM
EC50 (TT cells (RET C634W); read-out: EC50 for Inhibition of Protein Phosphorylation (95% CI), MEK1/2 S217/S221, 2 h, densitometry): 4.3 nM
EC50 (TT cells (RET C634W); read-out: EC50 for Inhibition of Protein Phosphorylation (95% CI), P70 RSK T421/S424, 2 h, densitometry): 0.4 nM
EC50 (TT cells (RET C634W); read-out: EC50 for Inhibition of Protein Phosphorylation (95% CI), RET Y905, 2 h, densitometry): 1 nM
EC50 (TT cells (RET C634W); read-out: EC50 for Inhibition of Protein Phosphorylation (95% CI), S6RP S235/S236, 2 h, densitometry): 0.7 nM
IC50 (LUAD-0086AS3 cells; [9]): 121 nM
raw viability signal (Source Data Fig. 3b-c) (LUAD-0086AS3 cells; 0.01 nM): 31309.7 and 31098.7 and 34263.2
raw viability signal (Source Data Fig. 3b-c) (LUAD-0086AS3 cells; 0.1 nM): 29924.8 and 30921.2 and 29063.2
raw viability signal (Source Data Fig. 3b-c) (LUAD-0086AS3 cells; 1 nM): 27745.6 and 30045.6 and 27962.9
raw viability signal (Source Data Fig. 3b-c) (LUAD-0086AS3 cells; 10 nM): 27211.8 and 27719.7 and 26448.1
raw viability signal (Source Data Fig. 3b-c) (LUAD-0086AS3 cells; 100 nM): 16795 and 17102.3 and 12766
raw viability signal (Source Data Fig. 3b-c) (LUAD-0086AS3 cells; 1000 nM): 14016.5 and 12908.6 and 9876.85
raw viability signal (Source Data Fig. 3b-c) (LUAD-0086AS3 cells; 10000 nM): 5069.85 and 4707.96 and 4562.26
IC50 (LUAD-0002AS1 cells; [9]): 4 nM
raw viability signal (Source Data Fig. 3b-c) (LUAD-0002AS1 cells; 0.01 nM): 15231.7 and 11282.9 and 12487.7
raw viability signal (Source Data Fig. 3b-c) (LUAD-0002AS1 cells; 0.1 nM): 13433.7 and 11365.6 and 12797.1
raw viability signal (Source Data Fig. 3b-c) (LUAD-0002AS1 cells; 1 nM): 14274.6 and 7102.45 and 10515
raw viability signal (Source Data Fig. 3b-c) (LUAD-0002AS1 cells; 10 nM): 5412.04 and 2878.75 and 4059.15
raw viability signal (Source Data Fig. 3b-c) (LUAD-0002AS1 cells; 100 nM): 2211.78 and 2052.44 and 2966.29
raw viability signal (Source Data Fig. 3b-c) (LUAD-0002AS1 cells; 1000 nM): 1138.02 and 1548.13 and 2436.62
raw viability signal (Source Data Fig. 3b-c) (LUAD-0002AS1 cells; 10000 nM): 935.955 and 1429.45 and 2173.09
IC50 (LUAD-0087AS2 cells; [9]): 24 nM
raw viability signal (Source Data Fig. 3b-c) (LUAD-0087AS2 cells; 0.01 nM): 10767.7 and 15151.6 and 17255.6 and 15692.7
raw viability signal (Source Data Fig. 3b-c) (LUAD-0087AS2 cells; 0.1 nM): 11083.5 and 15670.9 and 15636 and 16225.5
